Data published in US4442108A, “Hydrogenated isoquinolines and peripheral vascular disease treating compositions thereof” (Laboratoires Sobio S.A. of Immeuble Perisud, priority 1981, dated 1984).
Where a name gives a salt, the structure may show the parent alone. Read-outs that look alike come from different tables or passages of the source.

What was measured:
[1] = Acute toxicity, LD50 in mice (method of Litchfield and Wilcoxon), intravenous route; details: in vivo
Protocol: LD50 values in mice for several compounds of the invention were obtained by the method of Litchfield and Wilcoxon (J. Pharmacol. (1949), 96.99) after the administration of the test compound by intravenous route (i.v.) in the mouse (CD, males 18-24 g) in a volume of 0.40 ml/20 g of body weight. The mortality is noted 7 days after administration.

[2] = test system: isolated ileum of the guinea pig; experiment: Spasmolytic activity in vitro, barium chloride contraction of isolated ileum; type: cell-based; details: Cavia porcellus, Tyrode liquid, 37° C., barium chloride as contracting agent, product added 30 seconds before, read-out: EC50 (concentration required to cause inhibition of contraction in 50% of the population)
Protocol: The tests are carried out on isolated ileum of the guinea pig surviving in Tyrode liquid, aerated and maintained at 37° C. The products are added 30 seconds before affusion of barium chloride used as contracting agent. The concentrations required to cause inhibition of contraction in 50% of the population (EC50) was given in table II compared with papaverine.

[3] = test system: dogs anaesthetized with chloralose; experiment: Cardiovascular activity in anaesthetized dogs; type: in vivo, dog; details: i.v., 1/15 to 1/30 of the mouse i.v. LD50
Protocol: The following parameters were recorded in dogs anaesthetized with chloralose, and under artificial respiration:
left ventricular contractile force.
The compounds tested were injected intravenously in a dose of from (1/15) to (1/30) of the LD50 (i.v.) previoulsy determined in mice.

[4] = mouse CD males, i.v., 0.40 ml/20 g, mortality noted 7 days after administration, limits p = 0.05 in brackets
[5] = mouse, read-out: LD50 and limits (p = 0.05)

Row | SMILES | LD50 at 168 h [1, 4] [mg/kg] | EC50 [2] [µM] | effect on blood pressure (mean aortic pressure) [3] | effect on left ventricular contractile force [3] | LD50 at 168 h [1, 5] [mg/kg] | effect on cardiac frequency [3]
1 | CCCOc1ccc(CC2=NCCc3cc(OCC)c(OCC)cc32)cc1OCCC.Cl [Example 3, 6,7-Diethoxy-1-(3',4'-di-n-propoxybenzyl)-3,4-dihydroisoquinoline hydrochloride] | 17.5 | 3.2 | transient hypotension | reduction in the amplitude of ventricular contraction |  | 
2 | CCCOc1cc2c(cc1OCCC)C(Cc1ccc(OCC)c(OCC)c1)=NCC2.Cl [Example 4, 1-(3',4'-Diethoxybenzyl)-6,7-di-n-propoxy-3,4-dihydroisoquinoline hydrochloride] | 13.5 | 3.7 | transient hypotension | reduction in the amplitude of ventricular contraction |  | 
3 | CCOc1ccc(CC2NCCc3cc(OC(C)C)c(OC(C)C)cc32)cc1OCC.Cl (centres unmarked) [Example 10, 1-(3',4'-Diethoxybenzyl)-6,7-diisopropoxy-1,2,3,4-tetrahydroisoquinoline hydrochloride] | 19 | 10 | transient hypotension | reduction in the amplitude of ventricular contraction |  | 
4 | CCOc1ccc(CC2=NCCc3cc(OC(C)C)c(OC(C)C)cc32)cc1OCC [Example 2, 1-(3'4'-Diethoxybenzyl)-6,7-diisopropoxy-3,4-dihydroisoquinoline hydrochloride] |  | 4.2 | transient hypotension | reduction in the amplitude of ventricular contraction | 8.2 | 
5 | COc1ccc(Cc2nccc3cc(OC)c(OC)cc23)cc1OC [papaverine, 1-(3',4'-dimethoxybenzyl)-6,7-dimethoxy isoquinoline, reference compound] |  |  | transient hypotension | increase of the ventricular contractile force |  | tachycardia
6 | CCOc1cc2c(cc1OCC)C(Cc1ccc(OC(C)C)c(OC(C)C)c1)NCC2 (centres unmarked) [Example 11, 6,7-Diethoxy-1-(3',4'-diisopropoxybenzyl)-1,2,3,4-tetrahydroisoquinoline hydrochloride] | 22 | 60 |  |  |  | 
7 | CCOc1cc2c(cc1OCC)C(Cc1ccc(OC(C)C)c(OC(C)C)c1)=NCC2 [Example 1, 6,7-Diethoxy-1-(3'4'-diisopropoxybenzyl-3,4-dihydroisoquinoline hydrochloride] |  | 11 | transient hypotension | reduction in the amplitude of ventricular contraction | 19 | 
8 | COc1ccc(Cc2nccc3cc(OC)c(OC)cc23)cc1OC [Papauerine HCl, reference compound] |  | 980 |  |  |  | 
